Active and inactive are the calls of the source. No cut-off for these calls is given here.
Legend:
[1] = system: Mus musculus; experiment: Anti-aplastic anemia activity in C57BL/6J mouse model of immune-mediated bone marrow failure assessed as increase in memory CD8+ T cells at 5 to 15 mg/kg, IG qd treated for 12 days by flow cytometry; format: functional, organism-based; details: dose 5-15 mg/kg, time 12.0 day
[2] = system: Mus musculus; experiment: Anti-aplastic anemia activity in C57BL/6J mouse model of immune-mediated bone marrow failure assessed as decrease in histopathological change in bone marrow treated intragastrically once daily for 21 days by H and E staining based analysis; format: functional, organism-based; details: dose 5-15 mg/kg, route ig, time 21.0 day
[3] = system: CTLL-2; experiment: Induction of ferroptosis in mouse CTLL-2 cells assessed as increase in pMEK level at 7.5 to 30 uM incubated for 16 hrs by Western blot analysis; format: functional, cell-based; details: dose 7.5-30 µM
[4] = system: CD8-positive T cell; experiment: Inhibition of CD3/CD28-activated CD8-positive T cell activation in BALB/c mouse lymph nodes assessed as decrease in IFN-gamma level at 1 to 10 uM incubated for 72 hrs by ELISA; format: functional, tissue-based; details: Lymph node, dose 1-10 µM
[5] = system: CD8-positive T cell; experiment: Inhibition of CD3/CD28-activated CD8-positive T cell proliferation in BALB/c mouse lymph nodes incubated for 72 hrs by CFSE staining based flow cytometry; format: functional, tissue-based; details: Lymph node, dose 1-10 µM
[6] = system: Mus musculus; experiment: Anti-aplastic anemia activity in BALB/c mouse model of immune-mediated bone marrow failure assessed as increase in platelet cells at 10 mg/kg, po treated for 14 days; format: functional, organism-based; details: time 14.0 day
[7] = Acute toxicity in 12 hr-fasted KM mouse assessed as maximum tolerable dose administered orally as single dose measured for 14 days; details: in vivo, route po, time 14 day
[8] = system: CTLL-2; experiment: Induction of ferroptosis in mouse CTLL-2 cells assessed as increase in pERK level at 7.5 to 30 uM incubated for 16 hrs by Western blot analysis; format: functional, cell-based; details: dose 7.5-30 µM
[9] = Induction of ferroptosis in mouse CTLL-2 cells assessed as increase in intracellular Ca2+ concentration incubated for 45 mins by Fluo-4 AM dye based analysis; format: functional, cell-based; details: CTLL-2, 0.75 h
[10] = system: Mus musculus; experiment: Anti-aplastic anemia activity in C57BL/6J mouse model of immune-mediated bone marrow failure assessed as CD8+ T cells at 5 mg/kg, IG qd treated for 12 days by flow cytometry (reference value: 72.15 %); format: functional; details: time 12 day
[11] = system: CTLL-2; experiment: Induction of ferroptosis in mouse CTLL-2 cells assessed as increase in free Fe2+ level incubated for 16 hrs by FerroOrange staining based flow cytometry; format: functional, cell-based; details: dose 7.5-30 µM
[12] = system: CTLL-2; experiment: Induction of ferroptosis in IL-2-stimulated mouse CTLL-2 cells assessed as increase in ROS level at 30 uM incubated for 6 hrs followed by Fer-1 addition measured after 10 hrs by DCFH-DA staining based flow cytometry; format: functional, cell-based; details: time 16.0 hrs
[13] = Cmax in Sprague-Dawley rat at 50 mg/kg, po measured for 0.083 to 24 hrs by HPLC analysis; format: ADME, organism-based; details: in vivo, time 0.083-24 hrs
[14] = system: Mus musculus; experiment: Anti-aplastic anemia activity in C57BL/6J mouse model of immune-mediated bone marrow failure assessed as decrease in CD8+ T cells at 5 to 15 mg/kg, IG qd treated for 12 days by flow cytometry; format: functional, organism-based; details: dose 5-15 mg/kg, time 12.0 day
[15] = Acute toxicity in 12 hr-fasted KM mouse assessed as animal survival at 10 g/kg, po administered as single dose measured for 14 days; format: organism-based; details: in vivo, 10000 mg/kg, 336 h, time 14 day
[16] = system: Mus musculus; experiment: Anti-aplastic anemia activity in C57BL/6J mouse model of immune-mediated bone marrow failure assessed as reduction in cytotoxic T lymphocytes accumulation at 5 to 15 mg/kg, IG qd treated for 12 days; format: functional, organism-based; details: dose 5-15 mg/kg, time 12.0 day
[17] = system: Mus musculus; experiment: Anti-aplastic anemia activity in C57BL/6J mouse model of immune-mediated bone marrow failure assessed as restoration of naive CD8+ T cells at 5 to 15 mg/kg, IG qd treated for 12 days by flow cytometry; format: functional, organism-based; details: dose 5-15 mg/kg, time 12.0 day
[18] = system: Mus musculus; experiment: Anti-aplastic anemia activity in BALB/c mouse model of immune-mediated bone marrow failure assessed as increase in nucleated cells in bone marrow at 10 mg/kg, po treated for 14 days by H and E staining based analysis; format: functional, organism-based; details: time 14.0 day
[19] = Drug metabolism in Sprague-Dawley rat plasma assessed as (4bR,9S)-1-(hydroxymethyl)-3,7-dimethoxy-11-methyl-6-oxo-6,8a,9,10-tetrahydro-5H-9,4b-(epiminoethano)phenanthren-4-yl cinnamate metabolite formation at 50 mg/kg, po measured for 24 hrs by HPLC analysis; format: ADME, organism-based; details: in vivo
[20] = Drug metabolism in rat plasma assessed as double hydrolyzation/double hydroxylation-mediated metabolite formation at 50 mg/kg, po measured for 24 hrs by HRMS analysis; format: ADME, organism-based; details: in vivo
[21] = Stability in rat plasma at 50 mg/kg, po measured for 24 hrs by HPLC analysis; format: ADME, organism-based; details: in vivo
[22] = Drug metabolism in Sprague-Dawley rat plasma assessed as (4bR,9S)-1-(hydroxymethyl)-3,7-dimethoxy-11-methyl-6-oxo-6,8a,9,10-tetrahydro-5H-9,4b-(epiminoethano)phenanthren-4-yl cinnamate metabolite formation at 5 mg/kg, iv measured for 24 hrs by HPLC analysis; format: ADME, organism-based; details: in vivo
[23] = Drug metabolism in rat plasma assessed as (4bR,9S)-1-(hydroxymethyl)-3,7-dimethoxy-11-methyl-6-oxo-6,8a,9,10-tetrahydro-5H-9,4b-(epiminoethano)phenanthren-4-yl cinnamate metabolite formation at 50 mg/kg, po measured for 24 hrs by HRMS analysis; format: ADME, organism-based; details: in vivo
[24] = Drug metabolism in rat plasma assessed as cinnamic acid metabolite formation at 50 mg/kg, po measured for 24 hrs by HPLC-UV analysis; format: ADME, organism-based; details: in vivo
[25] = Drug metabolism in rat plasma assessed as hydrolyzation/double hydroxylation-mediated metabolite formation at 50 mg/kg, po measured for 24 hrs by HRMS analysis; format: ADME, organism-based; details: in vivo
[26] = Drug metabolism in rat plasma assessed as double hydrolyzation/demethylation-mediated metabolite formation at 50 mg/kg, po measured for 24 hrs by HRMS analysis; format: ADME, organism-based; details: in vivo
[27] = Stability in mouse bone marrow assessed as compound remaining at 50 mg/kg, po measured for 0.083 to 8 hrs by HPLC analysis; format: ADME, organism-based; details: in vivo, time 0.083-8 hrs
[28] = Drug metabolism in rat plasma assessed as hydrolyzation/demethylation-mediated metabolite formation at 50 mg/kg, po measured for 24 hrs by HRMS analysis; format: ADME, organism-based; details: in vivo
[29] = Stability in mouse kidney assessed as compound remaining at 50 mg/kg, po measured for 0.083 to 8 hrs by HPLC analysis; format: ADME, organism-based; details: in vivo, time 0.083-8 hrs
[30] = Drug metabolism in mouse bone marrow assessed as cinnamic acid metabolite formation at 50 mg/kg, po measured for 0.083 to 8 hrs by HPLC analysis; format: ADME, organism-based; details: in vivo, time 0.083-8 hrs
[31] = Drug metabolism in mouse blood assessed as (4bR,9S)-1-(hydroxymethyl)-3,7-dimethoxy-11-methyl-6-oxo-6,8a,9,10-tetrahydro-5H-9,4b-(epiminoethano)phenanthren-4-yl cinnamate metabolite formation at 50 mg/kg, po measured for 0.083 to 8 hrs by HPLC analysis; format: ADME, organism-based; details: in vivo, time 0.083-8 hrs
[32] = Stability in mouse plasma at 37 degreeC; format: ADME, cell-free
[33] = Drug metabolism in mouse plasma assessed as (4bR,9S)-1-(hydroxymethyl)-3,7-dimethoxy-11-methyl-6-oxo-6,8a,9,10-tetrahydro-5H-9,4b-(epiminoethano)phenanthren-4-yl cinnamate metabolite formation administered orally by HRMS analysis; format: ADME; details: po

COC1=C[C@@H]2[C@@H]3Cc4c(CO)cc(OC)c(OC(=O)/C=C/c5ccccc5)c4[C@]2(CCN3C)CC1=O
Activity [1]: Active | Activity [2]: Dose-dependent-effect | Activity [3]: Active | inhibition [4]: Active | inhibition [5]: Dose-dependent-effect | Activity [6]: Active | MTD at 336 h [7]: > 10000 mg/kg | Activity [8]: Active | EC50 [9]: 10.1 µM | Activity [10]: 60.82% | Activity [11]: Dose-dependent-effect | Activity [12]: inactive | Cmax [13]: 3590 ng/mL | Activity [14]: Active | Activity [15]: Non-toxic | Activity [16]: Active | Activity [17]: Active; Partial Restoration Of Naive Cd8+ T Cells Was Observed | Activity [18]: Active

COC1=C[C@@H]2[C@@H]3Cc4c(COC(=O)/C=C/c5ccccc5)cc(OC)c(OC(=O)/C=C/c5ccccc5)c4[C@]2(CCN3C)CC1=O
Drug metabolism [19]: metabolite_detected | Drug metabolism [20]: metabolite_detected | Stability [21]: Unstable | Drug metabolism [22]: metabolite_detected | Drug metabolism [23]: metabolite_detected | Drug metabolism [24]: metabolite_detected | Drug metabolism [25]: metabolite_detected | Drug metabolism [26]: metabolite_detected | Stability [27]: Unstable | Drug metabolism [28]: metabolite_detected | Stability [29]: Unstable | Drug metabolism [30]: metabolite_detected | Drug metabolism [31]: metabolite_detected | Stability [32]: Unstable | Drug metabolism [33]: metabolite_detected
